Assay results: patent US20110124745A1, “Switchable Anionic Surfactants and Methods of Making and Using Same” (priority 2009, published 2011)

Columns and labels:
[1] = Soil washing: amount of oil removed from contaminated sand
Description: Oil-contaminated soil was prepared in the following manner. North Sea crude oil (2.4 to 2.6 g) (Chevron, San Ramon, Calif., USA) was poured into a beaker. Tetrahydrofuran (THF) (to dissolution, approximately 50 mL) was added and the beaker and its contents were swirled to dissolve the oil. Ottawa sand (60 g) (EMD Chemicals, Gibbstown N.J., USA) was poured into the beaker and the contents of the beaker was swirled again. The beaker was left uncovered overnight at room temperature to allow the THF to evaporate. Then, the sand was broken up and mixed in the beaker. The beaker was left uncovered for a further time period so that total elapsed time for evaporation was 24 hours. The contaminated sand was then poured into a pre-weighed petrie dish, which was then placed into an oven at 110° C. and heated for 24 hours. After the petrie dish was removed from the oven and had cooled to room temperature, the sample and dish were weighed together. The contaminated sand was then transferred to a 100 mL amber vial for storage. This heat treatment was intended to simulate weathering of the contaminated soil. This procedure provided a sample of soil with 3.0 wt % oil contamination.
A 0.5 wt % surfactant solution was prepared in the following manner: surfactant (0.25 g) was added to a 50 mL volumetric flask. Deionized water at room temperature was added to achieve a total mass of 50 g. Sonication of the solution assisted with dissolving the surfactant.
A 0.5 wt % surfactant solution was prepared in the following manner: Deionized water was heated to 50° C. Surfactant (0.25 g) was added to a 50 mL volumetric flask. The heated water was added to achieve a total mass of 50 g. Swirling and shaking of the flask was sufficient to dissolve the surfactant.
A 0.1 wt % surfactant solution was also prepared using the above-described procedure wherein 0.0583 g of surfactant was used.
The contaminated sand of Example 7A was washed in the following manner. Three 20 mL vials were labelled and their empty masses were, recorded. Contaminated sand (5.1 g) was added to each vial and the vial's new masses were recorded. The surfactant solution was added to each vial using a syringe to achieve 10 g of solution. A stir bar was also added. The vials were capped with TEFLON®-lined lids and shaken manually for 20 seconds. The vials were placed in a beaker, to keep them upright. The beaker was placed on a stir plate and the vials were stirred at 470 rpm for 1 hour. Each vial was then manually shaken for 20 seconds. Then the stirring was continued for a second hour. The liquid portion of the samples was poured into separate 20 mL vials and is referred to below as “first decant solution”. The original vials (and their remaining contents) were each rinsed with 50 mL of deionized water and that rinse water was then added to 50 mL Wheaton jars and is referred to below as “wash solution”.
Sand washing was also carried out at elevated temperature by following the procedure as described in Example 7D with the difference that vials were placed into a 50° C. water bath. The water bath was placed on a stirring hot plate and was maintained 50° C. and the vials were stirred at 470 rpm for 1 hour. Each vial was then manually shaken for 20 seconds. Then the stirring was continued for a second hour. The liquid portion of the samples was poured into separate 20 mL vials and is referred to below as “first decant solution”. The original vials were each rinsed with 50 mL of deionized water and that rinse water was then added to 50 mL Wheaton jars and is referred to below as “wash solution”.
Oil remaining on the soil of Examples 7A-E was quantified in the following manner. An extraction was performed using 10 mL of a 1:1 dichloromethane:hexanes liquid mixture. This mixture was added to vials housing washed sand (the term “washed sand” refers to 5.1 g of contaminated sand from Example 7A that has been washed and rinsed using the procedures of Example 7D or 7E). […]

[2] = Switchability using DMSO-d6 (CO2 bubbling, 1H NMR); type: physicochemical; details: 0.01 M solution in DMSO-d6, non-aqueous
From the text: (§1) Since n-octyl 4-hydroxy-3-nitrobenzoate (1N) and the […] salt of (1A) are soluble in DMSO and have some characteristic signals in the ^1H NMR spectrum, […] was used as a solvent to monitor the non-aqueous switchability by NMR spectroscopy.

[3] = Solubility observations (aqueous solution, DMSO); type: physicochemical; details: DMSO
From the text: The following study confirmed that compounds (1A) and (1N) reversibly convert from the neutral form (1N) to the anionic form (1A) and back to the neutral form over and over again with substantially no loss of product. The conversion was verified visually since the neutral form was not soluble in aqueous solution and appeared as a white precipitate in colourless liquid while the anionic form was fully soluble in aqueous solution and appeared as a clear yellow liquid (see FIG. 2). In addition to visual examination, ^1H NMR studies that are described below confirmed the presence of the hydroxyl proton in the spectra of the neutral form.
as §1

[4] = 50° C. Washing, 0.5 wt % surfactant solution
[5] = Room Temperature Washing, 0.5 wt % surfactant solution

Compound: CCCCCCCCCCCCOS(=O)(=O)[O-].[Na+] [Sodium Dodecyl Sulfate (SDS), Sodium Dodecyl Sulfate]
- Amount of oil removed from sand [1, 4]: 86%
- Amount of oil removed from sand ([1]; Room Temperature Washing, 0.5 wt % surfactant solution, Sulfate): 40%
- Amount of oil removed from sand ([1]; Room Temperature Washing, 0.5 wt % surfactant solution, listed as sodium dodecyl sulfate (SDS), Sulfate): 40%

Compound: CCCCCCCCOC(=O)c1ccc(O)c([N+](=O)[O-])c1.[Na] [Sodium octyl 4-hydroxy-3-nitrobenzoate]
- Amount of oil removed from sand ([1]; 50° C. Washing, 0.1 wt % surfactant solution): 94%
- Amount of oil removed from sand [1, 4]: 94-97%
- Amount of oil removed from sand [1, 5]: 82%

Compound: Triton X-100
- Amount of oil removed from sand [1, 4]: 94%
- Amount of oil removed from sand [1, 5]: 68%

Compound: potassium 4-hydroxy-3-nitrobenzoate [potassium salt of (1A)]
- conversion on CO2 bubbling by 1H NMR [2]: no conversion was apparent
- solubility in DMSO [3]: soluble
